According to PubChem BioAssay (NCI):
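The compound was tested at five concentrations on cells cultured in 96-well plates, with a 48-hour exposure period. GI50: concentration for 50% inhibition of growth. TGI denotes the concentration required for complete inhibition of growth.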

Legend:
Test in all cases: DTP human tumour cell line panel, 48 h
[1] = tested on: SK-MEL-5 melanoma
[2] = tested on: HOP-92 NSCLC
[3] = tested on: SR leukemia
[4] = tested on: HL-60(TB) leukemia
[5] = tested on: M14 melanoma
[6] = tested on: RPMI-8226 leukemia
[7] = tested on: HCT-116 colon
[8] = tested on: ACHN renal
[9] = tested on: IGROV1 ovarian
[10] = tested on: OVCAR-3 ovarian
[11] = tested on: CAKI-1 renal
[12] = tested on: A498 renal
[13] = tested on: OVCAR-8 ovarian
[14] = tested on: T-47D breast
[15] = tested on: SK-OV-3 ovarian
[16] = tested on: HCT-15 colon
[17] = tested on: SF-539 CNS
[18] = tested on: NCI/ADR-RES ovarian
[19] = tested on: MCF7 breast
[20] = tested on: NCI-H522 lung
[21] = tested on: UO-31 renal
[22] = tested on: A549 NSCLC
[23] = tested on: HS 578T breast
[24] = tested on: SF-295 CNS
[25] = tested on: MDA-MB-231 breast
[26] = tested on: BT-549 breast
[27] = tested on: PC-3 prostate
[28] = tested on: HT29 colon
[29] = tested on: OVCAR-5 ovarian
[30] = tested on: COLO 205 colon
[31] = tested on: SW-620 colon
[32] = tested on: OVCAR-4 ovarian
[33] = tested on: KM12 colon
[34] = tested on: SK-MEL-28 melanoma
[35] = tested on: UACC-257 melanoma
[36] = tested on: LOX IMVI melanoma
[37] = tested on: SNB-19 CNS
[38] = tested on: NCI-H226 lung
[39] = tested on: NCI-H460 lung
[40] = tested on: EKVX NSCLC
[41] = tested on: NCI-H23 lung
[42] = tested on: DU-145 prostate
[43] = tested on: U251 CNS
[44] = tested on: K-562 leukemia
[45] = tested on: SF-268 CNS
[46] = tested on: MOLT-4 leukemia
[47] = tested on: HCC-2998 colon
[48] = tested on: SNB-75 CNS
[49] = tested on: RXF 393 renal
[50] = tested on: SK-MEL-2 melanoma
[51] = tested on: MDA-MB-435
[52] = tested on: UACC-62 melanoma
[53] = tested on: 786-0 renal

O=C(Nc1ccccc1Cl)c1cccc(NC2=C(Cl)C(=O)N(Cc3ccccc3)C2=O)c1
GI50 [1]: 14.1 µM | TGI [1]: 51.4 µM | GI50 [2]: 15 µM | TGI [2]: > 100 µM | GI50 [3]: 1.12 µM | TGI [3]: 3.39 µM | GI50 [4]: 1.4 µM | TGI [4]: 20.8 µM | GI50 [5]: 9.32 µM | TGI [5]: 29.5 µM | GI50 [6]: 3.1 µM | TGI [6]: 20.6 µM | GI50 [7]: 3.18 µM | TGI [7]: 13.3 µM | GI50 [8]: 60.5 µM | TGI [8]: > 100 µM | GI50 [9]: 0.549 µM | TGI [9]: 2.29 µM | GI50 [10]: 12.5 µM | TGI [10]: 33.3 µM | GI50 [11]: 23.2 µM | TGI [11]: 66.9 µM | GI50 [12]: 24.6 µM | TGI [12]: 89.9 µM | GI50 [13]: 20.8 µM | TGI [13]: > 100 µM | GI50 [14]: > 100 µM | TGI [14]: > 100 µM | GI50 [15]: > 100 µM | TGI [15]: > 100 µM | GI50 [16]: 14.1 µM | TGI [16]: > 100 µM | GI50 [17]: 26.7 µM | TGI [17]: 94.6 µM | GI50 [18]: 46.4 µM | TGI [18]: > 100 µM | GI50 [19]: 11.6 µM | TGI [19]: 33.4 µM | GI50 [20]: 7.72 µM | TGI [20]: 31.1 µM | GI50 [21]: 4.91 µM | TGI [21]: 53.8 µM | GI50 [22]: 49.3 µM | TGI [22]: > 100 µM | GI50 [23]: 30.2 µM | TGI [23]: > 100 µM | GI50 [24]: 23.3 µM | TGI [24]: 92.3 µM | GI50 [25]: 17.1 µM | TGI [25]: 69.7 µM | GI50 [26]: 22.5 µM | TGI [26]: > 100 µM | GI50 [27]: 18.9 µM | TGI [27]: 99 µM | GI50 [28]: 19.8 µM | TGI [28]: > 100 µM | GI50 [29]: > 100 µM | TGI [29]: > 100 µM | GI50 [30]: 51.2 µM | TGI [30]: > 100 µM | GI50 [31]: 26.1 µM | TGI [31]: > 100 µM | GI50 [32]: 3.63 µM | TGI [32]: 75.8 µM | GI50 [33]: 0.0371 µM | TGI [33]: 9.86 µM | GI50 [34]: 18.6 µM | TGI [34]: > 100 µM | GI50 [35]: 24.3 µM | TGI [35]: > 100 µM | GI50 [36]: 7.96 µM | TGI [36]: > 100 µM | GI50 [37]: 60.5 µM | TGI [37]: > 100 µM | GI50 [38]: 4.45 µM | TGI [38]: 46.4 µM | GI50 [39]: 26.8 µM | TGI [39]: > 100 µM | GI50 [40]: 88.3 µM | TGI [40]: > 100 µM | GI50 [41]: 50.5 µM | TGI [41]: > 100 µM | GI50 [42]: 28.5 µM | TGI [42]: > 100 µM | GI50 [43]: 21 µM | TGI [43]: > 100 µM | GI50 [44]: 2.67 µM | TGI [44]: 35.3 µM | GI50 [45]: 18.6 µM | TGI [45]: 58.6 µM | GI50 [46]: 2.52 µM | TGI [46]: > 100 µM | GI50 [47]: 20.5 µM | TGI [47]: 54.5 µM | GI50 [48]: 3.55 µM | TGI [48]: > 100 µM | GI50 [49]: 52.5 µM | TGI [49]: > 100 µM | TGI [50]: 6.38 µM | GI50 [51]: 3.05 µM | TGI [51]: 10.3 µM | GI50 [52]: 7.36 µM | TGI [52]: 51 µM | GI50 [53]: 10.2 µM | TGI [53]: 60.5 µM
